Measured values reported in article PMC12615753, “Glutathione as a taste modulator: molecular mechanisms of interaction with umami and sweet taste receptors” (Food Chemistry: Molecular Sciences, 2025).

Molecular target: T1, hTAS1R1 L223A/rTAS1R3 (Homo sapiens, UniProt Q7RTX1, L223A)
T1 construct: UniProtKB number Q7RTX1–1); expressed in transfected cells; host or cells: HEK293T/17 (ATCC CRL-11268)
T1 sequence (Q7RTX1 21-841 L223A): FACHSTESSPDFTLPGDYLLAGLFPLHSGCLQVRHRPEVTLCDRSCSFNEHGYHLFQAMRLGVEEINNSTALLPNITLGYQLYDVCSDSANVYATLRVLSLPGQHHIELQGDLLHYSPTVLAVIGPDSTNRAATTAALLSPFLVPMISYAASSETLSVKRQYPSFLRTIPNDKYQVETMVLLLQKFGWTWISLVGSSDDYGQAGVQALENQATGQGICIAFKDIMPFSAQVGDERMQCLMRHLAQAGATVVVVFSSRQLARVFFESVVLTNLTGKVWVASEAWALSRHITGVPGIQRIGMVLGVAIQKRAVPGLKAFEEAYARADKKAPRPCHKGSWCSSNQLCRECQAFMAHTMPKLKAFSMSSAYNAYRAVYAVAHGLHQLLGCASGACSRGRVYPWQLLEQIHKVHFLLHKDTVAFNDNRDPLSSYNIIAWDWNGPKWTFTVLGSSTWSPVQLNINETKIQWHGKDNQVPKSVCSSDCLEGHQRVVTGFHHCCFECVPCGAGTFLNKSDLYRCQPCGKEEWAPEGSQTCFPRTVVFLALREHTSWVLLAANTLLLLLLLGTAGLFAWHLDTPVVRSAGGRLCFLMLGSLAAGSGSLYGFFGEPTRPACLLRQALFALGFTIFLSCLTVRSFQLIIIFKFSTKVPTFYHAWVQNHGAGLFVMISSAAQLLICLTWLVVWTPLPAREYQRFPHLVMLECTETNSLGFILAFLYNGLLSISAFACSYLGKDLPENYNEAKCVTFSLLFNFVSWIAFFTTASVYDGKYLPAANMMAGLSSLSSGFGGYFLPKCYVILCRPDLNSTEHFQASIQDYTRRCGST
T1 sequence (Q923K1 21-858 partner): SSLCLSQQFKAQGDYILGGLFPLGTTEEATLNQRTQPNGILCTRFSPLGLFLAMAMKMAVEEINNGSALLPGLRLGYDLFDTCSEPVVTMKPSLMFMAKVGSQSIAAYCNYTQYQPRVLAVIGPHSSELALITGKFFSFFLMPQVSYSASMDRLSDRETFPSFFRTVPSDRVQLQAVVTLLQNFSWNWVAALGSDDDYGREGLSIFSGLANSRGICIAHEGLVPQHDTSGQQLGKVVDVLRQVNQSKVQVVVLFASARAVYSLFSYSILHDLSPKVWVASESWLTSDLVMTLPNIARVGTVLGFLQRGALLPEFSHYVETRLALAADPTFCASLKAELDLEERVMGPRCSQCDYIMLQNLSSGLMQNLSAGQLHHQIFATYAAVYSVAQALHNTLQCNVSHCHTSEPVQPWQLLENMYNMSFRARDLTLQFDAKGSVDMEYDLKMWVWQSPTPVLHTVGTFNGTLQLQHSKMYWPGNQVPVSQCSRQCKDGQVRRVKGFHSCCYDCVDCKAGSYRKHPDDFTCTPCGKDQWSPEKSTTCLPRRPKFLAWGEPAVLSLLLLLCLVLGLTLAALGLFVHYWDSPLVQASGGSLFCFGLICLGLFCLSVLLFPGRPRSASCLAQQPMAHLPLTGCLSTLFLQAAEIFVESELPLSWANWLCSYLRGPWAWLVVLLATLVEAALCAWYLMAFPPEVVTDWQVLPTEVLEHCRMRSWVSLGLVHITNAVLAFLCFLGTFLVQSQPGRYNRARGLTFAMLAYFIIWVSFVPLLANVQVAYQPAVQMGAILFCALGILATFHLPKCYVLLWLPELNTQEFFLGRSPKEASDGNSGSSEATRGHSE
Experiment: Calcium assay, hTAS1R1 mutant co-expressed with rTAS1R3
Assay type: cell-based, rat
Source text: Chimeric Gα proteins, such as Gα16Gust44, Gα16Gi3 or Gα15i2, are widely used in the functional expression of TAS1R receptors ([Backes et al., 2015]; [Suess et al., 2015]; [Toda et al., 2021], [Toda et al., 2013], [Toda et al., 2018]; [Zhang et al., 2008]). Chimeric Gα15i2 (([Toda et al., 2013]), Supplementary data) was generated by replacing the last five residues of the C-terminal tail of rat Gα15i2 (EINLL) (UniProt number G3V6N8; https://www.uniprot.org/uniprot/) with the counterpart sequence from human GNAI2 (DCGLF) (UniProt number P04899-1) and cloning into the pcDNA3.1/Hygro vector (Invitrogen, Thermo Fisher Scientific, Illkirch, France) between the HindIII and NotI restriction sites, resulting in the plasmid pcDNA3.1-Gα15i2. Chimeric Gα16Gust44 construct have already been reported ([Raliou et al., 2011]). Briefly, Gα16Gust44 was generated by replacing the C-terminal of Gα16 with the C-terminal 44 residues of gustducin. As previously described, hTAS1R1 was amplified from human fungiform papillae cDNA and cloned and inserted into pcDNA3 (Invitrogen), generating pcDNA3-TAS1R1-WT (wild-type) ([Raliou et al., 2011]). […] The cDNA coding region of rTAS1R3 was synthesized with optimized-codon usage for human expression (Genewiz) and was cloned and inserted into the mammalian pcDNA4/myc-HisA (Invitrogen) expression vector between the EcoRI and NotI restriction sites, resulting in the plasmid pcDNA4-rTAS1R3. […] The sequence integrity of all the plasmid constructs was verified via automated DNA sequencing (Genewiz).
The hTAS1R1 mutants were co-expressed with the rTAS1R3 subunit in HEK293 cells. […] As a control, the functionality of the mutated receptors was checked after stimulation with S807 (Fig. S8), which interacts with TAS1R1-TMD ([Zhang et al., 2008]).

SMILES	EC50 [µM]	effect of the added compound (1 mM) on the response to L-Glu (L223A)	response to the agonist alone, vs WT (L223A)	Max ∆F/F0 (L223A, GSH)	R1 = mutant EC50/WT EC50 (L223A, GSH)
N[C@@H](CCC(=O)N[C@@H](CS)C(=O)NCC(=O)O)C(=O)O [GSH, γ-L-glutamyl-L-cysteinyl-glycine]	2320 ± 308	synergy was observed	significantly increased the initial amplitude	1.71 ± 0.09	0.9
N[C@@H](CCC(=O)O)C(=O)O [L-Glu, L-glutamic acid, reference compound]			increased the amplitude		
